Measured values from patent US20210059927A1, “COSMETIC COMPOSITION COMPRISING DENDROBIUM CANDIDUM FLOWER EXTRACT” (LG HOUSEHOLD & HEALTH CARE LTD., priority 2017, published 2021).

Tests used:
[1] = test system: B-16 mouse melanoma cell; assay: Inhibitory effect of melanin production at cellular level; type: cell-based; details: positive control 100 ppm, 3 days, relative to negative control; n=4
Method: In order to confirm the brightening effect through the inhibition of melanin production of each extract prepared in Preparation Examples 1 to 9, the samples obtained in Preparation Examples 1 to 9 were added to a culture medium of mouse melanoma cells (B-16 mouse melanoma cell) to measure the total amount of melanin (Lotan R. et al., Cancer Res. 40:3345-3350, 1980). Prior to measuring the total amount of melanin, brightening evaluation was performed at non-toxic concentrations by first evaluating the toxicity of mouse melanoma cells. […]
Thereafter, the cells were trypsin-treated, detached from the culture vessel, and centrifuged, and melanin was extracted. The detached cells were added with 1 mL of sodium hydroxide solution (1N concentration), boiled for 10 minutes to dissolve the melanin, and the absorbance was measured at 405 nm using a spectrophotometer to measure the amount of melanin produced.
The amount of melanin was measured by the absorbance of the unit cell count (1×10^6 cells), and the melanin production inhibition rate (%) was calculated as the total amount of melanin relative to the negative control group, and the results are shown in Table 2 below.

[2] = test system: RAW264.7 cell line; assay: Inhibitory effect of nitric oxide (NO) production, GRIESS method, LPS-stimulated; type: cell-based, mouse; details: positive control 20 ppm, LPS 1 ppm, 24 hours, relative to LPS-only group; n=4
Method: In order to confirm the anti-inflammatory effect and skin trouble improvement effect of each extract prepared in Preparation Examples 1 to 9, NO production inhibitory effect was measured by the GRIESS method using RAW264.7 cell line (ATCC number: CRL-2278).
Specifically, RAW264.7 cells, which are macrophages of mice, were subcultured several times, and cultured for 24 hours after being placed in a 24-well plate such that 3×10^5 cells were placed in one well. After exchanging with a cell medium containing the sample at a final concentration of 0.1%, an untreated medium was used as a negative group and for a positive control group, 20 ppm of L-NG-monomethylarginine (L-NMMA) was used, which is a NO-production inhibitor. 1 ppm of lipopolysaccharide was treated as a stimulus source and cultured for 24 hours. The supernatant was transferred to a 96-well plate by 100 μL, and the GRIESS solution was added by 100 μL to react at room temperature for 10 minutes, and the NO inhibitory effect was determined by measuring the absorbance at 540 nm.
The NO production inhibitory rate (%) was calculated as a relative ratio of the amount of reduced NO compared to the LPS-only treatment group, and the results are shown in Table 3 below.

[3] = test system: Aquaporin 3; assay: Moisturizing gene expression by qRT-PCR in HaCaT: AQP3; type: cell-based, human; details: mRNA, positive control 10 ng/ml, negative control = 1.00, n=4
Method: In order to confirm the skin moisturizing effect of each extract prepared in Preparation Examples 1 to 9, gene expression related to moisturizing was measured using the cells cultured as below.
Human keratinocytes (HaCaT) were in a 6-hole cell culture plate 2×10^5 each, and then cultured using Dulbecco's Modified Eagle's medium (DMEM, Gibco, Co.) including fetal bovine serum (FBS) and antibiotics for 24 hours.
After culturing the cells, it was replaced with DMEM, High Glucose, no Glutamine, no calcium (Gibco, USA), and then the samples obtained in Preparation Examples 1 to 9 were treated at a concentration of 0.1% for 24 hours. […]
2.5 μg of RNA was quantified and reverse transcription was performed using cDNA synthesis kit (PhileKorea, Korea). […] Quantitative real time PCR (qRT-). […]
The experimental results obtained by qRT-PCT were shown by calculating with the ΔΔCT method (Livak K J, Schmittgen T D: Analysis of relative gene expression data using real-time quantitative PCR and the 2(-Delta Delta C(T)) Method, Methods, 25, 402-408(2001)) based on housekeeping gene and glyceraldehyde-3-phosphate dehydrogenase (GAPDH). To compare effects, moisturizing gene expression was measured in the same manner for a negative control group without treating samples and a positive control group treated with EGF 10 ng/ml and Ca^2+3 mM, respectively. […]

[4] = test system: type 1 collagen in human-derived fibroblasts; assay: Synthesis promotion effect of type 1 collagen in human-derived fibroblasts (PICP EIA kit); type: cell-based; details: positive control 10 ng/ml, relative to negative control; n=4
Method: In order to confirm the wrinkle improvement effect through promoting the synthesis of type 1 collagen of each extract prepared in Preparation Examples 1 to 9, collagen synthesis rate was measured by adding the samples obtained in Preparation Examples 1 to 9 to the culture solution of human-derived fibroblasts. The synthesis of collagen was quantified using a PICP EIA kit (Procollagen Type I C-Peptide Enzyme ImmunoAssay KIT). After adding the sample to a culture medium of fibroblasts (DMEM medium) at a final concentration of 0.1% and culturing for 48 hours, cultures were taken and the degree of collagen synthesis of type 1 collagen at each concentration was measured at 450 nm using a spectrophotometer with PICP EIA kit.
For comparison of the effects, the degree of collagen synthesis was measured in the same manner with respect to a culture medium (negative control group) of untreated fibroblasts and the sample (positive control) added with TGF-β to a final concentration of 10 ng/mL.
Collagen synthesis rate (%) was calculated as the ratio of the collagen production amount relative to the negative control, and the results are shown in Table 1 below.

## OC[C@H]1O[C@@H](Oc2ccc(O)cc2)[C@H](O)[C@@H](O)[C@@H]1O [Albutin]
[1]
  Melanin production inhibition rate (%): 33.13%

## CNC(=N)NCCC[C@H](N)C(=O)O [L-NMMA, L-NG-monomethylarginine]
[2]
  NO production inhibitory rate (%): 51.85%

## EGF: Positive control for moisturizing gene expression, 10 ng/ml
[3]
  Aquaporin 3 (fold): 3.27 fold

## TGF-β
[4]
  Collagen synthesis rate (%): 15.21%
